# Source: patent US7732434B2, “Macrocyclic acyl guanidines as beta-secretase inhibitors” (Bristol-Myers Squibb Company, priority 2007, dated 2010)
# Tested on: not given
# Experiment: not given
# Conditions: from C=CCCCCN(CC(=O)Nc1c(Cl)cc(CN/C(=N/C(=O)c2c(-c3ccc(OCC=C)cc3)noc2C)NC(=O)OC(C)(C)C)cc1Cl)C(=O)OC(C)(C)C; rcm bond; Grubbs Catalyst 2nd Generation; 1,2-dichloroethane; 3.71 mM; 45.0 °C; 2.0 h
row,Structure (SMILES),"ring closure, yield of all isomers"
1,Cc1onc2c1C(=O)N=C(NC(=O)OC(C)(C)C)NCc1cc(Cl)c(c(Cl)c1)NC(=O)CN(C(=O)OC(C)(C)C)CCCCC=CCOc1ccc-2cc1 (mixture of isomers),64.9%

# Same assay, conditions: from C=CCCCN(CC(=O)Nc1c(Cl)cc(CN/C(=N/C(=O)c2c(-c3ccc(OCC=C)cc3)noc2C)NC(=O)OC(C)(C)C)cc1Cl)C(=O)OC(C)(C)C; rcm bond; Grubbs Catalyst 2nd Generation; 1,2-dichloroethane; 3.94 mM; 40.0 °C; 2.0 h
row,Structure (SMILES),"ring closure, yield of all isomers"
1,Cc1onc2c1C(=O)N=C(NC(=O)OC(C)(C)C)NCc1cc(Cl)c(c(Cl)c1)NC(=O)CN(C(=O)OC(C)(C)C)CCCC=CCOc1ccc-2cc1,69.9%

# Same assay, conditions: from C=CCCCN(CC(=O)Nc1c(Cl)cc(CN/C(=N/C(=O)c2c(-c3ccc(OCC=C)cc3)nsc2C)NC(=O)OC(C)(C)C)cc1Cl)C(=O)OC(C)(C)C; rcm bond; Grubbs Catalyst 1st Generation; 1,2-dichloroethane; 3.04 mM; 70.0 °C; 6.0 h
row,Structure (SMILES),"ring closure, yield of all isomers"
1,Cc1snc2c1C(=O)N=C(NC(=O)OC(C)(C)C)NCc1cc(Cl)c(c(Cl)c1)NC(=O)CN(C(=O)OC(C)(C)C)CCCC=CCOc1ccc-2cc1,68%

# Same assay, conditions: from C=CCOc1ccc(-c2noc(C)c2C(=O)/N=C(/NCc2cc(Cl)c(NC(=O)CN(CC=C)C(=O)OC(C)(C)C)c(Cl)c2)NC(=O)OC(C)(C)C)cc1; rcm bond; Grubbs Catalyst 2nd Generation; 1,2-dichloroethane; 5.84 mM; 45.0 °C; 2.0 h
row,Structure (SMILES),"ring closure, yield of all isomers"
1,Cc1onc2c1C(=O)N=C(NC(=O)OC(C)(C)C)NCc1cc(Cl)c(c(Cl)c1)NC(=O)CN(C(=O)OC(C)(C)C)CC=CCOc1ccc-2cc1,53%

# Biological target: T1, BACE1 enzyme (Homo sapiens, UniProt P56817)
# T1 construct: The HEK293-9B.A1 cell line, which overexpresses the BACE1 enzyme, was derived from HEK293 cells; endogenous in cells; washed 48,000 x g pellet of cell homogenate
# Experiment: Radioligand displacement assay with a radiolabeled BACE inhibitor, HEK293-9B.A1 cell homogenate
# Assay type: binding
# Conditions: displacement of 1 nM radioligand, HEK293-9B.A1 homogenate, pH 5.0, 1.5 hr at 25° C.; read-out: Activity Rating (activity based on IC50 values)
# Description: Radioligand displacement assays with a radiolabeled BACE inhibitor (WO 2004 013098, compound 3, where the methoxy group is substituted for C(^3H)3) were carried out using standard methods (Keen, M. (1999) in Receptor Binding Techniques (Walker, J. M. ed) p. 106Humana Press, Totowa, N.J.). The HEK293-9B.A1 cell line, which overexpresses the BACE1 enzyme, was derived from HEK293 cells (Simmons, N. L. (1990) A cultured human renal epithelioid cell line responsive to vasoactive intestinal peptide. Exp. Physiol. 75:309-19.) by RAGE™ (Harrington, J. J. et al. (2001) Creation of genome-wide protein expression libraries using random activation of gene expression. Nat. Biotechnol. 19:440-5.; U.S. Pat. Nos. 6,410,266 and 6,361,972). T225 flask cultures of HEK293-9B.A1 were grown to 80% confluency in DMEM supplemented with 2 mM L-glutamine, 10 μg/ml penicillin, 10 μg/ml streptomycin, 3 μg/ml puromycin, 100 nM methotrexate, and 10% fetal bovine serum (Invitrogen, Carlsbad, Calif.), harvested, and resuspended at 2×10^8 cells per 10 ml of lysis buffer consisting of 50 mM HEPES pH 7.0 containing a protease inhibitor cocktail of AEBSF 104 μM, aprotinin 80 nM, leupeptin 2 μM, bestatin 4 μM, pepstatin A 1.5 μM, and E-64 1.4 μM (0.1% of protease inhibitor cocktail P8340, Sigma-Aldrich, St. Louis, Mo.) at 4° C. The resuspended cells were homogenized using a Polytron (Brinkman, Westbury, N.Y.) at setting 6 for 10 sec., then centrifuged at 48,000×g for 10 min. The resulting pellet was washed by repeating the resuspension, homogenization and centrifugation steps. The final pellet was resuspended in buffer at 4° C. to yield a total protein concentration of 5 mg/ml, then aliquots were frozen in liquid nitrogen for further storage at −70° C. Immediately before carrying out a binding assay, an aliquot of cell homogenate was thawed and diluted to a concentration of 100 μg/ml in assay buffer consisting of 50 mM HEPES pH 5.0 and 0.1% CHAPSO. Assays were initiated in polypropylene 96-well plates (Costar, Cambridge, Mass.) by the addition of 200 μl of cell homogenate to 50 μl of assay buffer containing 1 nM radioligand (WO 2004 013098, compound 3, where the methoxy group is substituted for C(^3H)3: 80 Ci/mMol) and various concentrations of unlabelled compounds, and incubated for 1.5 hr. at 25° C. Separation of bound from free radioligand was by filtration on GFF glass fiber filters (Innotech Biosystems International, Lansing, Mich.) using an Innotech cell harvester. Filters were washed three times with 0.3 ml of phosphate buffered saline pH 7.0 at 4° C. and assessed for radioactivity using a Wallac 1450 Microbeta liquid scintillation counter (PerkinElmer, Boston, Mass.). Ki values of competing compounds were derived through Cheng-Prussoff correction of IC50 values calculated using XLfit (IDBS, Guildford, UK).
# T1 sequence (P56817 46-501): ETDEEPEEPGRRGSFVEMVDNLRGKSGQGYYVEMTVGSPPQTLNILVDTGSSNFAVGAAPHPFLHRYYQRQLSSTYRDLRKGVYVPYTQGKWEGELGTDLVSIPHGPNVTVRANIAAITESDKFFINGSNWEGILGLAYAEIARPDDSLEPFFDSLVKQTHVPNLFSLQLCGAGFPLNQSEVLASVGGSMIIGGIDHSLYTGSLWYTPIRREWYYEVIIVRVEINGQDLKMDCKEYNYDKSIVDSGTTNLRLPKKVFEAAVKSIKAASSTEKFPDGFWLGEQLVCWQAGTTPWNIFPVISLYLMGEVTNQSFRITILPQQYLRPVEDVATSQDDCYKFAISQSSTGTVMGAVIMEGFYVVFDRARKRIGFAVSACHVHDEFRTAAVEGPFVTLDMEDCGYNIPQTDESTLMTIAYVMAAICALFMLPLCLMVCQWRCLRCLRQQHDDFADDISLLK
row,Structure (SMILES),IC50
1,"Cc1snc2c1C(=O)/N=C(\N)NCc1cc(Cl)c(c(Cl)c1)NC(=O)CNCCCCCOc1ccc-2cc1 [Example 9, 9-Amino-14,31-dichloro-5-methyl-25-oxa-4-thia-3,8,10,16,19-pentaazatetracyclo[24.2.2.2^12,15.0^2,6]dotriaconta-1(28),2,5,8,12,14,26,29,31-nonaene-7,17-dione]",< 5 nM
2,"Cc1onc2c1C(=O)/N=C(\N)NCc1cc(Cl)c(c(Cl)c1)NC(=O)CNCC=CCOc1ccc-2cc1 [Example 1, 9-Amino-14,30-dichloro-5-methyl-4,24-dioxa-3,8,10,16,19-pentaazatetracyclo-[23.2.2.2^12,15.0^2,6]hentriaconta-1(27),2,5,8,12,14,21,25,28,30-decaene-7,17-dione]",> 50 nM
3,"Cc1onc2c1C(=O)N=C(N)NCc1ccc(c(Cl)c1)NC(=O)CNCCC/C=C\COc1ccc-2cc1 [Example 11, (23Z)-9-Amino-14-chloro-5-methyl-4,26-dioxa-3,8,10,16,19-pentaazatetracyclo-[25.2.2.2^12,5.0^2,6]tritriaconta-1(29),2,5,8,12,14,23,27,30,32-decaene-7,17-dione]",< 5 nM
4,"Cc1onc2c1C(=O)/N=C(\N)NCc1cc(Cl)c(c(Cl)c1)NC(=O)CNCCCC/C=C\COc1ccc-2cc1 [Example 7, (24Z)-9-Amino-14,33-dichloro-5-methyl-4,27-dioxa-3,8,10,16,19-pentaazatetracyclo[26.2.2.2^12,15.0^2,6]tetratriaconta-1(30),2,5,8,12,14,24,28,31,33-decaene-7,17-dione]",< 5 nM
5,"Cc1snc2c1C(=O)/N=C(\N)NCc1cc(Cl)c(c(Cl)c1)NC(=O)CNCCCC=CCOc1ccc-2cc1 [Example 4, 9-Amino-14,32-dichloro-5-methyl-26-oxa-4-thia-3,8,10,16,19-pentaazatetracyclo[25.2.2.2^12,15.0^2,6]tritriaconta-1(29),2,5,8,12,14,23,27,30,32-decaene-7,17-dione]",5 to 50 nM
6,"Cc1snc2c1C(=O)/N=C(\N)NCc1cc(Cl)c(c(Cl)c1)NC(=O)CNCC/C=C\COc1ccc-2cc1 [Example 8, (22Z)-9-Amino-14,31-dichloro-5-methyl-25-oxa-4-thia-3,8,10,16,19-pentaazatetracyclo[24.2.2.2^12,15.0^2,6]dotriaconta-1(28),2,5,8,12,14,22,26,29,31-decaene-7,17-dione]",< 5 nM
7,"Cc1onc2c1C(=O)/N=C(\N)NCc1cc(Cl)c(c(Cl)c1)NC(=O)CNCCC/C=C\COc1ccc-2cc1 [Example 3, 9-Amino-14,32-dichloro-5-methyl-4,26-dioxa-3,8,10,16,19-pentaazatetracyclo-[25.2.2.2^12,15.0^2,6]tritriaconta-1(29),2,5,8,12,14,23,27,30,32-decaene-7,17-dione]",5 to 50 nM
8,"Cc1snc2c1C(=O)/N=C(\N)NCc1cc(Cl)c(c(Cl)c1)NC(=O)CNCCCCCCOc1ccc-2cc1 [Example 5, 9-Amino-14,32-dichloro-5-methyl-26-oxa-4-thia-3,8,10,16,19-pentaazatetracyclo[25.2.2.2^12,15.0^2,6]tritriaconta-1(29),2,5,8,12,14,27,30,32-nonaene-7,17-dione]",5 to 50 nM
9,"Cc1onc2c1C(=O)/N=C(\N)NCc1cc(Cl)c(c(Cl)c1)NC(=O)CNCC/C=C/COc1ccc-2cc1 [Example 2, (22E)-9-Amino-14,31-dichloro-5-methyl-4,25-dioxa-3,8,10,16,19-pentaazatetracyclo[24.2.2.2^12,15.0^2,6]dotriaconta-1(28),2,5,8,12,14,22,26,29,31-decaene-7,17-dione]",> 50 nM
10,"Cc1onc2c1C(=O)/N=C(\N)NCc1ccc(cc1)NC(=O)CNCCC/C=C\COc1ccc-2cc1 [Example 10, (23Z)-9-Amino-5-methyl-4,26-dioxa-3,8,10,16,19-pentaazatetracyclo-[25.2.2.2^12,15.0^2,6]tritriaconta-1(29),2,5,8,12,14,23,27,30,32-decaene-7,17-dione]",< 5 nM
11,"Cc1snc2c1C(=O)/N=C(\N)NCc1cc(Cl)c(c(Cl)c1)NC(=O)CN(Cc1ccccc1)CCCC=CCOc1ccc-2cc1 [Example 6, 9-Amino-19-benzyl-14,32-dichloro-5-methyl-26-oxa-4-thia-3,8,10,16,19-pentaazatetracyclo[25.2.2.2^12,15.0^2,6]tritriaconta-1(29),2,5,8,12,14,23,27,30,32-decaene-7,17-dione]",5 to 50 nM
